{
  "source": "patent US12031897B2",
  "about": "“Target-locking single-molecule nanoscopy” (Memorial Sloan Kettering Cancer Center, priority 2019, dated 2024)",
  "key": {"[1]": {"system": "Pol II (FLAG-SNAP-Rpb1) at the CMV mini-gene", "assay": "ChIP-qPCR of Pol II at the CMV mini-gene after flavopiridol treatment (U2-OS cells)", "format": "cell-based, human", "details": "10 μM flavopiridol, by the 5-minute time point; clone 5 cells", "procedure": "ChIP-qPCR analysis of Pol II after flavopiridol treatment. U2-OS cells. Fast chromatin immuno-precipitation was performed as described. Confluent 15 cm dishes (20×10^6 cells) were treated with 10 μM Flavopiridol or DMSO for the indicated times. Methanol-free formaldehyde (Thermo Fisher) was then directly added to the media to 1% v/v final concentration, and dishes were immediately placed on a rotator/shaker for 10 minutes at RT. Formaldehyde was quenched with 125 mM glycine for 5 min at RT, and cells were scraped and collected with centrifugation (2,000 g, 5 min at 4° C.) and washed twice with cold PBS. Cells were lysed in buffer IP (150 mM NaCl, 50 mM Tris-HCl pH 7.5, 5 mM EDTA, 0.5% v/v NP-40, 1.0% v/v Triton X-100) containing protease inhibitors, centrifuged (12,000 g, 1 min at 4° C.), and after one wash, the pellet was resuspended in buffer IP+protesase inhibitors. Volume equivalent to 4×10^6 cells was sonicated to shear the chromatin (Bioruptor indirect sonicator), and cleared using centrifugation (12,000 g, 10 min at 4° C.). […] Eluted chromatin was analyzed with qPCR, using primer pairs specific for different mini-gene regions (FIGS. 13I, 13J)."}, "[2]": {"system": "Pol II (FLAG-SNAP-Rpb1) at the Pou5f1 locus", "assay": "ChIP-qPCR of Pol II at the Pou5f1 locus after flavopiridol treatment (mESCs)", "format": "cell-based, mouse", "details": "10 μM flavopiridol; by the 5-minute and 12.5-minute time points respectively", "procedure": "mESCs. Confluent 15 cm dishes (˜10×10^6 OMG SNAP-Rpb1 clone 3 cells) were treated with 10 μM Flavopiridol or DMSO for the indicated times. Methanol-free formaldehyde (Thermo Fisher) was then directly added to the media to 1% v/v final concentration, and dishes were immediately placed on a rotator/shaker for 10 min at RT. Formaldehyde was quenched with 125 mM glycine for 5 min at RT, and cells were scraped and collected with centrifugation (800×g, 5 min at 4° C.) and washed twice with cold PBS. Cells were lysed with SDS lysis buffer (50 mM Tris-HCl pH 8, 10 mM EDTA, 1% SDS) containing protease inhibitors, and placed on ice for 10 min. Volume equivalent to 2×10^6 cells was sonicated to shear the chromatin (Branson SFX 150), and cleared using centrifugation (12,000 g, 10 min at 4° C.). The supernatant was diluted 1:10 in dilution buffer (0.01% SDS, 1.1% Triton X-100, 1.2 mM EDTA, 16.7 mM Tris-HCl pH 8, 167 mM NaCl)+protease inhibitors, pre-cleared using magnetic Protein G beads (Thermo Fisher Scientific 10003 D), for ˜2 hr at 4° C., cleared by separating the beads with a magnet, and 2% of the pre-cleared supernatant was kept at −20° C. as input. […] Eluted chromatin was analyzed with qPCR, using primer pairs specific for different Pou5f1/Oct4 regions."}},
  "data": [
    {"smiles": "CN1CC[C@H](c2c(O)cc(O)c3c(=O)cc(-c4ccccc4Cl)oc23)[C@H](O)C1", "note": "[flavopiridol]", "values": [
      {"measurement": "Pol II ChIP signal at mini-gene body and terminator regions", "setting": "[1]", "result": "near-complete loss"},
      {"measurement": "Pol II ChIP signal at Pou5f1 gene body and 3'UTR regions", "setting": "[2]", "result": "significant and near-complete losses"}
    ]}
  ]
}
